Test results as given in the NIST ThermoML archive (doi:10.1021/je900124n).
“And” between values parts separate entries of the source, which are not always exact repeats. Equal values may be shown once. Numbers after ± are expanded uncertainties.

Settings: Fluid (supercritical or subcritical phases), Buoyancy - hydrostatic balance with magnetic suspension - two sinkers

CCC [propane]
Settings	mass density
340 K, 34960 kPa	514.104 ± 0.062 kg/m3
340 K, 34961 kPa	514.106 ± 0.062 kg/m3
340 K, 34962 kPa	514.105 ± 0.062 kg/m3
345 K, 2494.9 kPa	58.0748 ± 0.036 kg/m3 and 58.0791 ± 0.036 kg/m3 and 58.0771 ± 0.036 kg/m3
345 K, 2495 kPa	58.0845 ± 0.036 kg/m3 and 58.0787 ± 0.036 kg/m3
350 K, 1942.1 kPa	37.8566 ± 0.044 kg/m3 and 37.8552 ± 0.044 kg/m3
350 K, 1942.5 kPa	37.8654 ± 0.044 kg/m3 and 37.8643 ± 0.044 kg/m3
350 K, 1942.6 kPa	37.8656 ± 0.044 kg/m3
350 K, 2573.5 kPa	58.0372 ± 0.049 kg/m3 and 58.0366 ± 0.049 kg/m3
350 K, 2573.6 kPa	58.041 ± 0.049 kg/m3 and 58.0413 ± 0.049 kg/m3 and 58.0386 ± 0.049 kg/m3
350 K, 2844.7 kPa	70.6094 ± 0.53 kg/m3
350 K, 2844.9 kPa	70.6242 ± 0.53 kg/m3
350 K, 2845 kPa	70.6246 ± 0.53 kg/m3
350 K, 2845.1 kPa	70.6278 ± 0.53 kg/m3 and 70.6365 ± 0.53 kg/m3
350 K, 2845.2 kPa	70.6334 ± 0.53 kg/m3
350 K, 2845.3 kPa	70.6504 ± 0.53 kg/m3 and 70.6463 ± 0.53 kg/m3
350 K, 3505.9 kPa	392.661 ± 0.54 kg/m3
350 K, 3506 kPa	392.666 ± 0.54 kg/m3
350 K, 3506.2 kPa	392.664 ± 0.54 kg/m3
350 K, 3506.3 kPa	392.667 ± 0.54 kg/m3
350 K, 3506.4 kPa	392.663 ± 0.54 kg/m3 and 392.666 ± 0.54 kg/m3
350 K, 3506.5 kPa	392.666 ± 0.54 kg/m3
350 K, 12070 kPa	449.428 ± 0.055 kg/m3 [middle of 6 runs]
350 K, 12071 kPa	449.434 ± 0.055 kg/m3 and 449.429 ± 0.055 kg/m3
350 K, 24455 kPa	484.992 ± 0.059 kg/m3 and 484.989 ± 0.059 kg/m3
350 K, 24456 kPa	484.992 ± 0.059 kg/m3
355 K, 2650.7 kPa	57.9954 ± 0.061 kg/m3 [middle of 4 runs]
355 K, 3003.3 kPa	73.4591 ± 0.061 kg/m3 [middle of 6 runs]
355.01 K, 3003.3 kPa	73.4598 ± 0.061 kg/m3
359 K, 3436 kPa	96.2198 ± 0.073 kg/m3
359 K, 3436.4 kPa	96.2687 ± 0.073 kg/m3 and 96.2618 ± 0.073 kg/m3 and 96.2668 ± 0.073 kg/m3
359 K, 3436.5 kPa	96.2652 ± 0.073 kg/m3
359.99 K, 15760 kPa	448.817 ± 0.055 kg/m3
359.99 K, 15761 kPa	448.823 ± 0.055 kg/m3
360 K, 303.73 kPa	4.597 ± 0.0029 kg/m3 and 4.5969 ± 0.0029 kg/m3
360 K, 303.74 kPa	4.597 ± 0.0029 kg/m3 and 4.5971 ± 0.0029 kg/m3
360 K, 539.35 kPa	8.3504 ± 0.0033 kg/m3
360 K, 539.36 kPa	8.3506 ± 0.0033 kg/m3 and 8.3504 ± 0.0033 kg/m3 and 8.3503 ± 0.0033 kg/m3
360 K, 901.24 kPa	14.4832 ± 0.0041 kg/m3 and 14.4833 ± 0.0041 kg/m3
360 K, 901.25 kPa	14.4835 ± 0.0041 kg/m3 and 14.4836 ± 0.0041 kg/m3
360 K, 1361.2 kPa	23.0769 ± 0.029 kg/m3 and 23.078 ± 0.029 kg/m3
360 K, 1361.3 kPa	23.0792 ± 0.029 kg/m3
360 K, 1361.4 kPa	23.0819 ± 0.029 kg/m3 and 23.0827 ± 0.029 kg/m3
360 K, 2033.2 kPa	37.8651 ± 0.036 kg/m3
360 K, 2033.3 kPa	37.8677 ± 0.036 kg/m3
360 K, 2033.4 kPa	37.8707 ± 0.036 kg/m3
360 K, 2033.5 kPa	37.8723 ± 0.036 kg/m3 and 37.8724 ± 0.036 kg/m3
360 K, 2725.4 kPa	57.912 ± 0.045 kg/m3
360 K, 2725.5 kPa	57.9157 ± 0.045 kg/m3
360 K, 2725.6 kPa	57.9165 ± 0.045 kg/m3
360 K, 3108.3 kPa	73.4362 ± 0.073 kg/m3 [middle of 6 runs]
360 K, 3108.4 kPa	73.4363 ± 0.073 kg/m3
360 K, 3467.9 kPa	96.3808 ± 0.61 kg/m3 and 96.381 ± 0.61 kg/m3
360 K, 3468 kPa	96.3801 ± 0.61 kg/m3 and 96.3793 ± 0.61 kg/m3 and 96.3804 ± 0.61 kg/m3
360 K, 3730.9 kPa	352.636 ± 0.21 kg/m3 and 352.637 ± 0.21 kg/m3
360 K, 3731 kPa	352.635 ± 0.21 kg/m3
360 K, 3731.1 kPa	352.636 ± 0.21 kg/m3
360 K, 5948.1 kPa	392.145 ± 0.051 kg/m3
360 K, 5948.8 kPa	392.137 ± 0.051 kg/m3
360 K, 5949.1 kPa	392.137 ± 0.051 kg/m3
360 K, 5949.4 kPa	392.137 ± 0.051 kg/m3 and 392.14 ± 0.051 kg/m3 and 392.139 ± 0.051 kg/m3
360 K, 5949.5 kPa	392.138 ± 0.051 kg/m3
360 K, 5949.7 kPa	392.139 ± 0.051 kg/m3
360 K, 7930.9 kPa	409.823 ± 0.051 kg/m3
360 K, 7931 kPa	409.821 ± 0.051 kg/m3
360 K, 7931.2 kPa	409.824 ± 0.051 kg/m3
360 K, 7931.3 kPa	409.824 ± 0.051 kg/m3
360 K, 11923 kPa	433.101 ± 0.053 kg/m3 [middle of 5 runs]
360 K, 15761 kPa	448.822 ± 0.055 kg/m3 and 448.82 ± 0.055 kg/m3 and 448.823 ± 0.055 kg/m3
360 K, 15762 kPa	448.821 ± 0.055 kg/m3 and 448.822 ± 0.055 kg/m3
360 K, 16074 kPa	449.912 ± 0.055 kg/m3
360 K, 16075 kPa	449.912 ± 0.055 kg/m3 and 449.911 ± 0.055 kg/m3
360 K, 19910 kPa	462.101 ± 0.056 kg/m3 and 462.102 ± 0.056 kg/m3
360 K, 23890 kPa	472.673 ± 0.057 kg/m3 and 472.674 ± 0.057 kg/m3 and 472.672 ± 0.057 kg/m3
360 K, 23891 kPa	472.674 ± 0.057 kg/m3
360 K, 30126 kPa	486.462 ± 0.059 kg/m3
360 K, 30127 kPa	486.462 ± 0.059 kg/m3
360 K, 35259 kPa	496.072 ± 0.06 kg/m3
360 K, 35260 kPa	496.073 ± 0.06 kg/m3 and 496.072 ± 0.06 kg/m3
360 K, 35262 kPa	496.074 ± 0.06 kg/m3
360.01 K, 901.24 kPa	14.4833 ± 0.0041 kg/m3
360.01 K, 3108.3 kPa	73.4355 ± 0.073 kg/m3
365 K, 3675.6 kPa	100.804 ± 0.63 kg/m3 and 100.799 ± 0.63 kg/m3 and 100.803 ± 0.63 kg/m3
365 K, 3675.7 kPa	100.805 ± 0.63 kg/m3
365 K, 4200.9 kPa	337.532 ± 0.5 kg/m3 and 337.539 ± 0.5 kg/m3 and 337.537 ± 0.5 kg/m3
365 K, 4201.1 kPa	337.536 ± 0.5 kg/m3
365 K, 4201.2 kPa	337.534 ± 0.5 kg/m3
365 K, 4201.3 kPa	337.537 ± 0.5 kg/m3 and 337.54 ± 0.5 kg/m3
365 K, 4201.5 kPa	337.541 ± 0.5 kg/m3
369 K, 4143.7 kPa	146.446 ± 2 kg/m3 [middle of 6 runs]
369 K, 4143.8 kPa	146.438 ± 2 kg/m3 and 146.437 ± 2 kg/m3
369 K, 4197.8 kPa	281.2 ± 2.8 kg/m3 and 281.206 ± 2.8 kg/m3
369 K, 4197.9 kPa	281.145 ± 2.8 kg/m3
369 K, 4198 kPa	281.222 ± 2.8 kg/m3 [middle of 4 runs]
369 K, 4198.1 kPa	281.241 ± 2.8 kg/m3
369.82 K, 4245.5 kPa	199.588 ± 0.91 kg/m3 and 199.89 ± 0.91 kg/m3 and 199.647 ± 0.91 kg/m3
369.82 K, 4245.6 kPa	199.834 ± 0.91 kg/m3
369.82 K, 4246.6 kPa	245.595 ± 0.86 kg/m3
369.82 K, 4985.6 kPa	337.371 ± 0.069 kg/m3
369.82 K, 19374 kPa	448.259 ± 0.055 kg/m3
369.82 K, 19375 kPa	448.259 ± 0.055 kg/m3 [middle of 7 runs]
369.83 K, 3309.2 kPa	73.3627 ± 0.064 kg/m3
369.83 K, 3309.3 kPa	73.3633 ± 0.064 kg/m3 and 73.3643 ± 0.064 kg/m3 and 73.3637 ± 0.064 kg/m3
369.83 K, 3309.4 kPa	73.3693 ± 0.064 kg/m3 [middle of 4 runs]
369.83 K, 4186.1 kPa	146.569 ± 0.39 kg/m3
369.83 K, 4186.2 kPa	146.57 ± 0.39 kg/m3 [middle of 6 runs]
369.83 K, 4186.3 kPa	146.572 ± 0.39 kg/m3
369.83 K, 4245.5 kPa	199.889 ± 0.91 kg/m3
369.83 K, 4245.6 kPa	200.17 ± 0.91 kg/m3 and 199.849 ± 0.91 kg/m3 and 199.989 ± 0.91 kg/m3
369.83 K, 4246.6 kPa	245.029 ± 0.86 kg/m3 and 245.142 ± 0.86 kg/m3
369.83 K, 4246.7 kPa	245.511 ± 0.86 kg/m3 and 245.436 ± 0.86 kg/m3
369.83 K, 4246.8 kPa	245.25 ± 0.86 kg/m3 and 245.225 ± 0.86 kg/m3
369.83 K, 4246.9 kPa	245.368 ± 0.86 kg/m3
369.83 K, 4284.4 kPa	281.216 ± 0.94 kg/m3
369.83 K, 4284.5 kPa	281.229 ± 0.94 kg/m3 and 281.217 ± 0.94 kg/m3
